{"source": "paper PMC5740381", "about": "(Antimicrobial Agents and Chemotherapy, 2017)", "key": {"[1]": {"test_system": "HIV-1 IIIB strain", "assay": "HIV-1 antiviral cytoprotection assay, CEM-SS cells", "assay_type": "cell-based, human immunodeficiency virus type 1", "conditions": "Human immunodeficiency virus 1, IIIB, read-out: Mean EC50 ± SD"}, "[2]": {"test_system": "HCV genotype 1", "conditions": "3-day monotherapy, daily doses of 100 to 700 mg, genotype 1 treatment-naive patients; cited from earlier work"}, "[3]": {"test_system": "HCV subgenomic stable replicons containing proteases from genotypes 1 to 6", "assay": "Stable HCV replicon assay, several genotypes", "assay_type": "cell-based", "conditions": "Hepatitis C virus, Huh-7, read-out: EC50, range over stable replicons", "description": "(§1) Five of these nine cell lines have been described previously, including those transfected with genotypes 1a H77, 1b Con1, 3a, 4a, and 6a ([28]). […] The genotype 2b and 6e NS3 sequences were each synthetically constructed based on a consensus sequence derived from the alignment of 15 genotype 2b and 4 genotype 6e sequences, respectively. All replicon constructs were bicistronic subgenomic replicons similar to those described by Bartenschlager and coworkers, and the replicon cell lines were generated by introducing these constructs into cells of an Huh-7 human hepatoma-derived cell line ([50]). The inhibitory effect of the PIs on HCV replication in replicon cells was determined in Dulbecco's modified Eagle medium containing 5% fetal bovine serum with or without 40% human plasma (Bioreclamation, Westbury, NY). The EC50s were determined using nonlinear regression curve fitting as described previously ([33])."}, "[4]": {"test_system": "HCV genotype 1 to 6 NS3/4A proteases", "assay": "HCV NS3/4A protease biochemical assay, all genotypes", "parameters": "species or system Hepatitis C virus", "conditions": "read-out: IC50, range over proteases", "description": ". […] Genes encoding NS3/4A were derived from laboratory strains 1a-H77 (GenBank accession number NC_004102) and 1b-N (GenBank accession number AF139594) or from clinical samples from patients infected with genotype 2a, 2b, 3a, or 4a. All patients provided written informed consent. Clinical studies were designed according to Good Clinical Practice guidelines, the Declaration of Helsinki, and applicable local regulations, with independent ethics committee or institutional review board approval for all study sites. The genotype 5a NS3/4A gene sequence was synthetically constructed based on the sequence of the clinical isolate SA13 (GenBank accession number AF064490) ([48]), whereas the genotype 6a NS3/4A gene sequence was synthetically constructed based on a consensus sequence derived from the alignment of 15 genotype 6a sequences available in GenBank. The NS3/4A genes were each cloned into the protein expression vector pET14b (Novagen, Madison, WI), and a clone with an NS3/4A protease sequence that matched the consensus sequence for each sample was subsequently selected for protein expression and purification. Protease activity was measured by continuous monitoring of the fluorescence change associated with the cleavage of a fluorogenic depsipeptide (EDANS/DABCYL) substrate using a purified recombinant HCV NS3/4A protease as described previously ([49]). […]"}, "[5]": {"biological_target": "T1, Chymotrypsin type II (Bos taurus, UniProt P00766)", "T1 construct": "purchased Sigma-Aldrich", "assay": "Human protease biochemical assay", "conditions": "read-out: Mean IC50 ± SD", "procedure": "(§2) […]; catalog number M9771; Sigma-Aldrich), and 0.05 U/ml elastase (excitation wavelength = 370 nm, emission wavelength = 460 nm); (ii) for chymase, 0.4 M Tris, pH 8.0, 1.8 M NaCl, 9% dimethyl sulfoxide, 0.4 mM substrate (Suc-AAF-AMC; catalog number S8758; Sigma-Aldrich), and 0.063 U/ml chymase (excitation wavelength = 370 nm, emission wavelength = 460 nm); (iii) for cathepsin B, 50 mM MES (morpholineethanesulfonic acid), pH 6.0, 50 mM NaCl, 2 mM EDTA, 0.1% Triton X-100, 0.4 mM substrate (Z-RR-AMC; catalog number C5429; Sigma-Aldrich), and 1.7 μg/ml cathepsin B (excitation wavelength = 370 nm, emission wavelength = 460 nm); (iv and v) for chymotrypsin types II and VII, 50 mM Tris, pH 8, 10 mM CaCl2, 0.1% Triton X-100, 0.25 mM substrate (Suc-AAF-AMC; catalog number S8758; Sigma-Aldrich), and 0.5 nM chymotrypsin type II or type VII (excitation wavelength = 370 nm, emission wavelength = 460 nm); (vi) for kallikrein, 50 mM Tris, pH 7.4, 0.5 mM EDTA, 0.05% Tween 20, 150 mM NaCl, 0.35 mM substrate (H-Pro-Phe-Arg-AMC; catalog number I-1295; Bachem), and 2 nM kallikrein (excitation wavelength = 355 nm, emission wavelength = 460 nm); and (vii) for urokinase, 50 mM Tris, pH 7.4, 0.15 M NaCl, 0.5% Pluronic F-68, 0.2 mM substrate (pyro-Glu Arg-p-nitroanilide-HCl; catalog number S-2444; Diapharma), and 3 nM urokinase (absorbance at 405 nm)."}, "[6]": {"biological_target": "T2, Urokinase (Homo sapiens, UniProt P00749)", "T2 construct": "purchased Sigma-Aldrich", "assay": "Human protease biochemical assay", "conditions": "read-out: Mean IC50 ± SD", "procedure": "as §2"}, "[7]": {"biological_target": "T3, Chymase (Homo sapiens, UniProt P23946)", "T3 construct": "purchased Sigma-Aldrich", "T3 sequence (P23946 22-247)": "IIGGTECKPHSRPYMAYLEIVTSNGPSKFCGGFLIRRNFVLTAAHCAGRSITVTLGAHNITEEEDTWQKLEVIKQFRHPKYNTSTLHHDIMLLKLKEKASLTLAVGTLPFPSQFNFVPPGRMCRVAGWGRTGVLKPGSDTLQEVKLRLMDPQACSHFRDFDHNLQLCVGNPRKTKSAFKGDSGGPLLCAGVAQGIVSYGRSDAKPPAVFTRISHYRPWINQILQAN", "assay": "Human protease biochemical assay", "conditions": "read-out: Mean IC50 ± SD", "procedure": "as §2"}, "[8]": {"biological_target": "T4, Chymotrypsin type VII (Bos taurus, UniProt P00766)", "T4 construct": "purchased Sigma-Aldrich", "assay": "Human protease biochemical assay", "conditions": "read-out: Mean IC50 ± SD", "procedure": "as §2"}, "[9]": {"biological_target": "T5, Elastase (Homo sapiens, UniProt P08246)", "T5 construct": "purchased Sigma-Aldrich", "T5 sequence (P08246 30-247 limits assumed)": "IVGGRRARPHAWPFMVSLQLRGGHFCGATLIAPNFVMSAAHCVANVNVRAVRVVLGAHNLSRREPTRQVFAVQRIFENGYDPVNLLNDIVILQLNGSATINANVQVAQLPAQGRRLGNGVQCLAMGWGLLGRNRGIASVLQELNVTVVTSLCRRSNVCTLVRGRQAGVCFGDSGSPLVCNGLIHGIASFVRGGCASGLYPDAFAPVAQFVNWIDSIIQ", "assay": "Human protease biochemical assay", "conditions": "read-out: Mean IC50 ± SD", "procedure": "as §2"}, "[10]": {"biological_target": "T6, Cathepsin B (Homo sapiens, UniProt P07858)", "T6 construct": "purchased Sigma-Aldrich", "assay": "Human protease biochemical assay", "conditions": "read-out: Mean IC50 ± SD", "procedure": "as §2"}, "[11]": {"test_system": "HCV subgenomic stable replicon GT1a H77", "assay_type": "cell-based, Hepatitis C virus", "conditions": "0% human plasma, read-out: Mean EC50 ± SD", "description": "as §1"}, "[12]": {"test_system": "HCV subgenomic stable replicon GT1b Con1", "assay_type": "cell-based, Hepatitis C virus", "conditions": "0% human plasma, read-out: Mean EC50 ± SD", "description": "as §1"}, "[13]": {"test_system": "HCV subgenomic stable replicon GT2a JFH-1", "assay_type": "cell-based, Hepatitis C virus", "conditions": "GT2a JFH-1 stable replicon, 0% human plasma; read-out: Mean EC50 ± SD", "description": "as §1"}}}
{"smiles": "CC(C)(C)[C@@H]1NC(=O)O[C@@H]2CCC[C@H]2OC/C=C/C(F)(F)c2nc3ccccc3nc2O[C@@H]2C[C@@H](C(=O)N[C@]3(C(=O)NS(=O)(=O)C4(C)CC4)C[C@H]3C(F)F)N(C2)C1=O", "note": "[Glecaprevir, (3aR,7S,10S,12R,21E,24aR)-7-tert-butyl-N-[(1R,2R)-2-(difluoromethyl)-1-{[(1-methylcyclopropyl)sulfonyl]carbamoyl}cyclopropyl]-20,20-difluoro-5,8-dioxo-2,3,3a,5,6,7,8,11,12,20,23,24a-dodecahydro-1H,10H-9,12-methanocyclopenta[18,19][1,10,17,3,6]trioxadiazacyclononadecino[11,12-b]quinoxaline-10-carboxamide]", "values": [{"measurement": "EC50", "setting": "[1]", "result": "> 22000", "unit": "nM"}, {"measurement": "Mean maximal decrease in HCV plasma viral load from baseline", "setting": "[2]", "result": "3.8 to 4.3", "unit": "log10 IU/ml"}, {"measurement": "EC50", "setting": "[3]", "result": "0.21 to 4.6", "unit": "nM"}, {"measurement": "IC50", "setting": "[4]", "result": "3.5 to 11.3", "unit": "nM"}, {"measurement": "IC50", "setting": "[5]", "result": "> 200000", "unit": "nM"}, {"measurement": "IC50", "setting": "[6]", "result": "> 200000", "unit": "nM"}, {"measurement": "IC50", "setting": "[7]", "result": "> 200000", "unit": "nM"}, {"measurement": "IC50", "setting": "[8]", "result": "> 200000", "unit": "nM"}, {"measurement": "IC50", "setting": "[9]", "result": "> 200000", "unit": "nM"}, {"measurement": "IC50", "setting": "[10]", "result": "> 200000", "unit": "nM"}]}
{"smiles": "C=C[C@@H]1C[C@]1(NC(=O)[C@@H]1C[C@@H]2CN1C(=O)[C@H](C(C)(C)C)NC(=O)O[C@@H]1C[C@H]1CCCCCc1nc3ccc(OC)cc3nc1O2)C(=O)NS(=O)(=O)C1CC1", "note": "[Grazoprevir]", "values": [{"measurement": "EC50", "setting": "[11]", "result": "0.37 ± 0.05", "unit": "nM"}, {"measurement": "EC50", "setting": "[12]", "result": "1 ± 0.17", "unit": "nM"}, {"measurement": "EC50", "setting": "[13]", "result": "8.6 ± 3", "unit": "nM"}]}
